Measured values reported in patent publication US9944677B2, “Selective inhibitor of angiotensin II” (GEORGETOWN UNIVERSITY, priority 2013, dated 2018).
Ends that are not written are not given here.

System: rats
Assay: Behavioral arousal, locomotion and grooming behavior
Details: rat, in vivo

Substance: MAGILSG [PEP7, MAGILSG (SEQ ID NO: 1)]
- Effect on behavioral arousal, locomotion and grooming behavior: did not have an effect
